Target: T1, Adenosine receptor A1 (Rattus norvegicus, UniProt P25099)
T1 sequence (P25099 whole entry): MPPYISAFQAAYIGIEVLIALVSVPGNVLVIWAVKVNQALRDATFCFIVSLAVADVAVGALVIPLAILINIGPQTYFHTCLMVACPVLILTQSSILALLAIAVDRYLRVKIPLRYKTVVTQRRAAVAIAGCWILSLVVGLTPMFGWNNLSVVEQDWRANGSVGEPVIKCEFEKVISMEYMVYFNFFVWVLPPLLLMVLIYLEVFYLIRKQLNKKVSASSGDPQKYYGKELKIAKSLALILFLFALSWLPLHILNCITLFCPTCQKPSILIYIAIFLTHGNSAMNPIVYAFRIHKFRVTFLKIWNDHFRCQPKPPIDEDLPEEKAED
Experiment: Displacement of [3H]DPCPX from adenosine A1 receptor in rat brain membrane
Type: cell membranes

SMILES	IC50 [µM]
CCC(=O)O[C@@H]1CC/C(C)=C\[C@@H]2OC(=O)C(C)=C2C[C@H]2C(C)=C[C@H](OC(C)=O)[C@H](OC(C)=O)[C@]12C [ANTHOPTILIDE E]	490
CC(=O)O[C@H]1C(=O)C=C(C)[C@@H]2CC3=C(C)C(=O)O[C@H]3/C=C(/C)CC[C@@H](OC(=O)c3ccccc3)[C@]21C [ANTHOPTILIDE D]	500
C/C=C(\C)C(=O)O[C@@H]1CC/C(C)=C\[C@@H]2OC(=O)C(C)=C2C[C@H]2C(C)=CC(=O)[C@H](OC(C)=O)[C@]12C [ANTHOPTILIDE A]	420

Second part, the molecule after the results:

IC50 [µM]	SMILES
3.1	CCC(=O)O[C@@H]1CC/C(C)=C\[C@@H]2OC(=O)C(C)=C2C[C@H]2C(C)=CC(=O)[C@H](OC(C)=O)[C@]12C [ANTHOPTILIDE C]
45	CC(=O)O[C@H]1C(=O)C=C(C)[C@@H]2CC3=C(C)C(=O)O[C@H]3/C=C(/C)CC[C@@H](OC(=O)C(C)C)[C@]21C [ANTHOPTILIDE B]
